Test results from patent publication US20230310352A1, “NOVEL COMPOSITIONS AND METHODS FOR THE TREATMENT OF LUNG FIBROSIS” (LAURENT PHARMACEUTICALS INC., priority 2020, published 2023).
Entries after “also recorded” stand apart in the source; their conditions may differ.

Tests used:
[1] = tested on: Normal human lung fibroblast cells (NHLF cells, ATCC CRL-7000); test: COL1A1 mRNA transcript by qRT-PCR after TGF-β1 exposure in NHLF; format: cell-based; conditions: TGF-β1 2 ng/mL + fenretinide 1, 2, 3, 4 μM, 3 days
Experimental: NHLF cells were incubated for 3 days at 37° C. and treated with TGF-β1 (2 ng/mL) or TGF-β1 (2 ng/mL)+Fenretinide (1, 2, 3, 4 μM). At the end of the 3 day-treatment period, media was removed using a vacuum pump and total RNA was isolated using the TriReagent protocol (BioShop) and cDNA was obtained by reverse transcription using the SUPERSCRIPT® VILO®. COL1A1 transcript levels were determined by qRT-PCR using the Fast SyBR Master Mix and specific probes, and quantified following the ΔΔCT, normalized to PUM-1 expression as internal control. The experiments were performed in quadruplicate.

[2] = tested on: Normal human lung fibroblast cells (NHLF cells, ATCC CRL-7000); test: Pro-collagen 1A1 protein by ELISA after TGF-β1 exposure in NHLF; format: cell-based; conditions: TGF-β1 2 ng/mL + fenretinide 1, 2, 3, 4 μM, 3 days
Experimental: NHLF cells were incubated for 3 days at 37° C. and treated with TGF-β1 (2 ng/mL) or TGF-β1 (2 ng/mL)+Fenretinide (1, 2, 3, 4 μM). At the end of the 3 day-treatment period, media was collected in identified tubes, centrifuged at 2,000 g for 20 minutes and stored at −80° C. Cells were collected using trypsin, transferred in identified tubes and centrifuged at 1,000 g for 5 minutes. Cells were then washed twice in PBS 1X prior to be resuspended in ELISA lysis buffer. Pro-collagen 1A1 protein contents were determined using Abcam ELISA detection kit (Ab210966). Experiment performed in quadruplicate.

human lung microtissues [3] = test: Immunostaining of fibrotic markers (α-SMA, pro-collagen type 1) in TGF-β1 fibrosis-induced 3D lung microtissues; format: cell-based
Description: To confirm the findings of the NHLF cells, the effects of fenretinide administration was observed on a newly developed in vitro model arrays of 3D microtissues that are suspended over multiple flexible micropillars. Progression of lung fibrosis is characterized by stiffening of the membranous tissue that makes up the alveolar air sacs, caused by the accumulation of highly contractile and collagen-producing myofibroblasts. To model the physio-pathological characteristics of lung fibrosis in vitro, different experimental systems have been developed. Planar 2D culture-based assays offer multiparameter readout of fibrotic cellular markers, but they have very limited capacity to measure or reproduce tissue mechanics. In order to recapitulate dynamic changes in tissue mechanics during fibrogenesis, a newly validated membranous human lung microtissues array was used, that models key biomechanical events occurred during lung fibrogenesis, including progressive stiffening and contraction of alveolar tissue, decline in alveolar tissue compliance, and traction force-induced bronchial dilation. This new 3D array of membranous lung microtissues model of lung fibrosis had been validated using two FDA-approved antifibrosis drugs, pirfenidone and nintedanib. This model was further extended to larger lung tissue arrays, to mimic the traction on alveoli as a model of bronchiectasis. (Asmani M. et al, 2018, Nature Com, 9:2066)
The lung microtissue chip system used is based on bio-MEMS technology that can assemble 3D cell-populated submillimeter microtissues in arrays of polydimethylsiloxane (PDMS) microwells. In each microwell, human lung fibroblasts or epithelial cells spontaneously contract and assemble the matrix proteins, such as collagen, into microtissues that anchor on top of an array of micropillars. The flexible micropillars serve as in situ force sensors that can report the contractile force generated by the tissue. […]
These observations are further described in Table 1, which presents fenretinide induced reduction of alpha smooth muscle actin (α-SMA) and pro-collagen expression and contractile forces induced by TGF-β1 in lung microtissue in preventative and therapeutic treatment measured as a percentage.

human lung microtissues [4] = test: Contractile force of TGF-β1 treated 3D lung microtissues (micropillar deflection); format: cell-based; conditions: for contractile force, reduction vs TGF-β1 only treated condition, percentage change: Day 6
Description: The lung microtissue chip system used is based on bio-MEMS technology that can assemble 3D cell-populated submillimeter microtissues in arrays of polydimethylsiloxane (PDMS) microwells. In each microwell, human lung fibroblasts or epithelial cells spontaneously contract and assemble the matrix proteins, such as collagen, into microtissues that anchor on top of an array of micropillars. The flexible micropillars serve as in situ force sensors that can report the contractile force generated by the tissue.
The effect of fenretinide on the inhibition of microtissue contractile force in a preventative treatment regimen was also measured. Increased contractile force is one of the main biomechanical features associated with fibrosis progression. The spontaneous contraction force generated by individual microtissues was determined from the deflection of micropillars based on cantilever bending theory. Micropillar deflection was measured using phase contrast microscopy, by comparing the deflected position of the centroid of each pillar top to the centroid of its base. Microtissue contraction force was measured for the same batch of samples on a daily basis for each pharmacological condition. The micropillar spring constant was determined based on the actual geometry of the micropillar and the elastic modulus of the PDMS. […] In contrast, the force developed by untreated samples plateaued after 1 day at around 80 μN. […] The 4 μM fenretinide dose reduced the contractile force by Day 6 to around 70 μN, a reduction of about 38% as compared to TGF-β1 treated condition.
The effect of fenretinide 4 μM dose on the inhibition of microtissue contractile force was tested in a therapeutic treatment regimen. Fibrosis was first allowed to progress for three days under the induction of TGF-β1 (5 ng/ml) and fenretinide was then added from day 3 to day 6 to model a therapeutic treatment. […] TGF-β1 present in media for 3 days and absent for following 3 days (mean±SD, n=8). However, on day 6 as compared to day 3, fenretinide at 2 μM reduced the tissue contractility by 10%, 4 μM fenretinide by 15% and the combination of 2 μM fenretinide and 1.6 mM pirfenidone by 26%.

VEGF = test: Mouse model of LPS-induced acute respiratory distress syndrome, BALF VEGF; format: in vivo; conditions: inhaled fenretinide, LPS-induced ARDS mouse model
[5] = preventative treatment, 2 μM, 6 days
[6] = preventative treatment, 4 μM, 6 days
[7] = preventative, co-administered with TGF-β1 5 ng/ml for 6 days, 2 μM and 4 μM
[8] = therapeutic treatment, added day 3 to day 6, 2 μM
[9] = therapeutic treatment, added day 3 to day 6, 4 μM

SMILES: CC1=C(/C=C/C(C)=C/C=C/C(C)=C/C(=O)Nc2ccc(O)cc2)C(C)(C)CCC1 [fenretinide, 4-hydroxyphenyl retinamide]
- induction of fibrotic marker COL1A1 gene expression (qRT-PCR) [1]: attenuates, in a dose-dependent manner; also recorded: dose-dependent attenuation
- induction of Pro-collagen 1A1 protein levels (ELISA) [2]: attenuate and, at certain doses, completely abolish; also recorded: dose-dependent attenuation
- induction of Pro-collagen 1A1 protein levels (ELISA) ([2]; listed as Fenretinide): dose-dependent attenuation
- pro-collagen, reduction of expression induced by TGF-β1, percentage change (human lung microtissues [3]; [5]): 88.0%
- α-SMA, reduction of expression induced by TGF-β1, percentage change (human lung microtissues [3]; [5]): 45.0%
- pro-collagen, reduction of expression induced by TGF-β1, percentage change (human lung microtissues [3]; [6]): 81.0%
- α-SMA, reduction of expression induced by TGF-β1, percentage change (human lung microtissues [3]; [6]): 37.0%
- expression of pro-collagen type 1 (fluorescent intensity) (human lung microtissues [3]; [7]): increasingly inhibited by increasing fenretinide concentrations
- expression of α-SMA (fluorescent intensity) (human lung microtissues [3]; [7]): increasingly inhibited by increasing fenretinide concentrations
- pro-collagen, reduction of expression induced by TGF-β1, percentage change (human lung microtissues [3]; [8]): 39.0%
- α-SMA, reduction of expression induced by TGF-β1, percentage change (human lung microtissues [3]; [8]): 56.0%
- pro-collagen, reduction of expression induced by TGF-β1, percentage change (human lung microtissues [3]; [9]): 58.0%
- α-SMA, reduction of expression induced by TGF-β1, percentage change (human lung microtissues [3]; [9]): 72.0%
- inhibition at 4 µM (human lung microtissues [4]; Homo sapiens, therapeutic treatment, 4 μM, read-out: inhibition of contractile force as compared to TGF-β1 only treated condition (positive control)): 57%
- TGF-β1-induced increase in contractile force (human lung microtissues [4]; preventative treatment, 2 μM and 4 μM): inhibit TGF-131-induced increase in contractile force in a dose-dependent manner
- microtissue contractile force (human lung microtissues [4]; preventative treatment, 2 μM, 6-day measurement (TGF-β1 only around 130 μN, untreated around 80 μN)): 80-85 μN
- contractile force, reduction vs TGF-β1 only treated condition, percentage change (human lung microtissues [4]; preventative treatment, 2 μM): about 28%
- contractile force, reduction vs TGF-β1 only treated condition, percentage change (human lung microtissues [4]; preventative treatment, 2 μM, listed as Fenret): 28.0%
- contractile force, reduction vs TGF-β1 only treated condition, percentage change (human lung microtissues [4]; preventative treatment, 4 μM): about 38%
- microtissue contractile force (human lung microtissues [4]; preventative treatment, 4 μM, Day 6 (TGF-β1 only around 130 μN, untreated around 80 μN)): around 70 μN
- contractile force, reduction vs TGF-β1 only treated condition, percentage change (human lung microtissues [4]; preventative treatment, 4 μM, listed as Fenret): 38.0%
- reduction of tissue contractility on day 6 as compared to day 3 (human lung microtissues [4]; therapeutic treatment, 2 μM): 10%
- reduction of tissue contractility on day 6 as compared to day 3 (human lung microtissues [4]; therapeutic treatment, 4 μM): 15%
- contractile force, reduction vs TGF-β1 +3/−3 group on day 6, percentage change (human lung microtissues [4]; [8]): 34%
- contractile force, reduction vs TGF-β1 +3/−3 group on day 6, percentage change (human lung microtissues [4]; therapeutic treatment, added day 3 to day 6, 2 μM, listed as Fenret): 34.0%
- contractile force, reduction vs TGF-β1 +3/−3 group on day 6, percentage change (human lung microtissues [4]; [9]): 34%
- contractile force, reduction vs TGF-β1 +3/−3 group on day 6, percentage change (human lung microtissues [4]; therapeutic treatment, added day 3 to day 6, 4 μM, listed as Fenret): 34.0%
- bronchoalveolar lavage fluid (BALF) VEGF (VEGF): significant increase
